Source: patent publication US6589916B1, “Method and composition for treating and promoting the growth of plants” (Amvac Chemical Corporation, priority 1999, dated 2003)

Experiments:
[1] = test system: Morning Glory; details: stated in U.S. Pat. No. 2,766,554; cited from earlier work
[2] = test system: live grass (Bermudagrass (Common, Midiron, and Ormond), Tifway II, Tifway 419, Tifdwarf, and Tifgreen 328 grasses); assay: Methyldithiocarbamate trials: spray treatment of live golf course grass plots, leaf appearance scored; format: in vivo; parameters: key to score for appearance of the grass leaves: 0: burning of leaf tissue; 1: bronzing of leaf tissue; 2: burning of the tip of the leaf tissue; 3: No burning or change in color of the leaf tissue; 4: good greening of the leaf tissue; 5: excellent greening of the leaf tissue
Protocol: The effect of the application of methylammonium methyldithiocarbamate to live grass was determined in the following manner. Dilute aqueous solutions of three salts of the same dithiocarbamic acid derivative were prepared: methylammonium methyldithiocarbamate, sodium methyldithiocarbamate, and potassium methyldithiocarbamate. The solutions were prepared by mixing the dithiocarbamic acid derivative with water to achieve a concentration of between about 1.2 and 3.5% by weight.
Three plots of grass of substantially equal type, quality, color, and size were selected at each of several golf courses throughout the state of Florida. The grass at these courses consisted of one or a combination of Bermudagrass (Common, Midiron, and Ormond), Tifway II, Tifway 419, Tifdwarf, and Tifgreen 328 grasses. To each of these plots one of the methyldithiocarbamate salts were applied via an ordinary above-ground spraying system in an amount equivalent to between about 0.5 to 40 lbs of methyldithiocarbamate salt per acre of soil. All applications were watered in with 1/2 inch of water within 20 minutes of treatment, which moved the dithiocarbamic acid derivative into and slightly below the root zone of the grass.
The results of treating each plot with the methyldithiocarbamate salts were evaluated from 1 to 2 weeks after treatment by examining the appearance of the grass leaves. A score was assigned to each plot according to the following scale: 0=burning of leaf tissue; 1=bronzing of leaf tissue; 2=burning of the tip of the leaf tissue; 3=No burning or change in color of the leaf tissue; 4=good greening of the leaf tissue; 5=excellent greening of the leaf tissue. Where two values were assigned, the plot contained a substantial number of grass leaves of one score and a substantial number of the other score.

[3] = four hours ultraviolet light from an arc; U.S. Pat. No. 2,835,625; cited from earlier work
[4] = 1. Grenelefe Resort, treated February 1998, evaluation 2 weeks after treatment
[5] = 1. Grenelefe Resort, treated January 1998, evaluation 2 weeks after treatment
[6] = 1. Grenelefe Resort, treated March 1998, evaluation 2 weeks after treatment
[7] = 2. Long Boat Key, treated April 1998, evaluation 1 week after treatment
[8] = 2. Long Boat Key, treated February 1998, evaluation 2 weeks after treatment
[9] = 2. Long Boat Key, treated March 1998, evaluation 2 weeks after treatment
[10] = 3. Indian River Club, treated April 1998, evaluation 1 week after treatment
[11] = 3. Indian River Club, treated March 1998, evaluation 2 weeks after treatment
[12] = 3. Indian River Club, treated May 1998, evaluation 1 week after treatment
[13] = 4. La Cita C.C., treated June 1998, evaluation 1 week after treatment
[14] = 4. La Cita C.C., treated March 1998, evaluation 1 week after treatment
[15] = 4. La Cita C.C., treated September 1998, evaluation 1 week after treatment
[16] = 5. Wellington C.C., treated April 1998, evaluation 2 weeks after treatment
[17] = 6. Dodgertown C.C., treated April 1998, evaluation 1 week after treatment
[18] = 6. Dodgertown C.C., treated May 1998, evaluation 1 week after treatment
[19] = 7. Westchester C.C., treated April 1998, evaluation 1 week after treatment
[20] = 8. President Club, treated July 1998, evaluation 1 week after treatment
[21] = 8. President Club, treated May 1998, evaluation 1 week after treatment
[22] = 9. Vero Beach C.C., treated June 1998, evaluation 1 week after treatment
[23] = 10. Admirals Cove, treated July 1998, evaluation 1 week after treatment
[24] = 11. Moorings C.C., treated August 1998, evaluation 1 week after treatment
[25] = 12. Hawks Nest C.C., treated August 1998, evaluation 1 week after treatment
[26] = 13. Woodmont C.C., treated June 1998, evaluation 1 week after treatment
[27] = 13. Woodmont C.C., treated September 1998, evaluation 1 week after treatment

SMILES | score for appearance of the grass leaves [2, 4] | score for appearance of the grass leaves [2, 5] | score for appearance of the grass leaves [2, 6] | score for appearance of the grass leaves [2, 7] | score for appearance of the grass leaves [2, 8] | score for appearance of the grass leaves [2, 9] | score for appearance of the grass leaves [2, 10] | score for appearance of the grass leaves [2, 11] | score for appearance of the grass leaves [2, 12] | score for appearance of the grass leaves [2, 13] | score for appearance of the grass leaves [2, 14] | score for appearance of the grass leaves [2, 15] | score for appearance of the grass leaves [2, 16] | score for appearance of the grass leaves [2, 17] | score for appearance of the grass leaves [2, 18] | score for appearance of the grass leaves [2, 19] | score for appearance of the grass leaves [2, 20] | score for appearance of the grass leaves [2, 21] | score for appearance of the grass leaves [2, 22] | score for appearance of the grass leaves [2, 23] | further results
CN.CNC(=S)S [METHYL AMMONIUM, methylammonium methyldithiocarbamate] | 3-4 | 4 | 4 | 4 | 4 | 4 | 4 | 4 | 4 | 5 | 5 | 5 | 5 | 4 | 4 | 4 | 5 | 5 | 4-5 | 4 | eradication of Morning Glory [1]: excellent eradicator of Morning Glory; score for appearance of the grass leaves [2, 24]: 5; score for appearance of the grass leaves [2, 25]: 5; score for appearance of the grass leaves [2, 26]: 5; score for appearance of the grass leaves [2, 27]: 5; appearance of the grass leaf tissue, in words ([2]; Grenelefe Resort, February): improved only marginally in color; appearance of the grass leaf tissue, summary in words ([2]; all treated areas of Table 2): either good or excellent greening of the leaf tissue; results compared with potassium methyldithiocarbamate ([2]; all trials of Table 2): far better results than the potassium methyldithiocarbamate; results compared with sodium methyldithiocarbamate ([2]; all trials of Table 2): better results than the sodium methyldithiocarbamate
CNC(=S)[S-].[K+] [POTASSIUM, potassium methyldithiocarbamate] | 1 | 0 | 0-1 | 1-2 | 1 | 1-2 | 0-1 | 1 | 1-2 | 1 | 2 | 2 | 1 | 0 | 1-2 | 1 | 2-3 | 0 | 1 | 1-2 | score for appearance of the grass leaves [2, 24]: 1; score for appearance of the grass leaves [2, 25]: 0; score for appearance of the grass leaves [2, 26]: 1-2; score for appearance of the grass leaves [2, 27]: 2-3
CNC(=S)[S-].[Na+] [SODIUM, sodium methyldithiocarbamate] | 3 | 3 | 3-4 | 3 | 2 | 3 | 3 | 3 | 3-4 | 3-4 | 4 | 4 | 3 | 3 | 3-4 | 3 | 4 | 4 | 3-4 | 3-4 | score for appearance of the grass leaves [2, 24]: 4; score for appearance of the grass leaves [2, 25]: 4; score for appearance of the grass leaves [2, 26]: 4; score for appearance of the grass leaves [2, 27]: 4
CC(C)OC(=O)SC(=S)N(C)C [isopropoxycarbonyl dimethyldithiocarbamate] |  |  |  |  |  |  |  |  |  |  |  |  |  |  |  |  |  |  |  |  | biological activity after ultraviolet light treatment [3]: without losing any biological activity
